According to patent US20080281105A1, “Novel Quinolinium Salts and Derivatives” (IMMUSOL INCORPORATED, priority 2005, published 2008):

Assays:
MDA_MB-435 = test: Cell growth in liquid culture (alamarBlue); conditions: Homo sapiens, MDA-MB-435, 72 h, read-out: IC50 (uM) Liquid culture
OVCAR-8 = test: Cell growth in liquid culture (alamarBlue); conditions: Homo sapiens, OVCAR-8, 72 h, read-out: IC50 (uM) Liquid culture
SW480 [1] = test: Cell growth in soft agar culture (alamarBlue); conditions: Homo sapiens, SW480, 168 h, read-out: IC50 (uM) Soft agar
SW480 [2] = test: Cell growth in liquid culture (alamarBlue); conditions: Homo sapiens, SW480, 72 h, read-out: IC50 (uM) Liquid culture
DU145 [3] = test: Cell growth in liquid culture (alamarBlue); conditions: Homo sapiens, DU-145, 72 h, read-out: IC50 (uM) Liquid culture
HT29 [4] = test: Cell growth in soft agar culture (alamarBlue); conditions: Homo sapiens, HT-29, 168 h, read-out: IC50 (uM) Soft agar
NCI-H460 = test: Cell growth in liquid culture (alamarBlue); conditions: Homo sapiens, NCI-H460, 72 h, read-out: IC50 (uM) Liquid culture
DU145 [5] = test: Cell growth in soft agar culture (alamarBlue); conditions: Homo sapiens, DU-145, 168 h, read-out: IC50 (uM) Soft agar
A2780 = test: Cell growth in soft agar culture (alamarBlue); conditions: Homo sapiens, A2780, 168 h, read-out: IC50 (uM) Soft agar
[6] = test system: HCT116 colon cancer cells; conditions: HCT116 xenograft, I.p.
From the text: Female athymic nude (nu/nu) mice were inoculated with HCT116 colon cancer cells, and the tumors were allowed to grow to a volume of about 150 mm^3.

SK-OV-3 [7] = test: Cell growth in liquid culture (alamarBlue); conditions: Homo sapiens, SK-OV-3, 72 h, read-out: IC50 (uM) Liquid culture
MDA-231 [8] = test: Cell growth in soft agar culture (alamarBlue); conditions: Homo sapiens, MDA-MB-231, 168 h, read-out: IC50 (uM) Soft agar
SK-OV-3 [9] = test: Cell growth in soft agar culture (alamarBlue); conditions: Homo sapiens, SK-OV-3, 168 h, read-out: IC50 (uM) Soft agar
MCF7 [10] = test: Cell growth in liquid culture (alamarBlue); conditions: Homo sapiens, MCF7, 72 h, read-out: IC50 (uM) Liquid culture
HUVEC = test: Cell growth in liquid culture (alamarBlue); conditions: Homo sapiens, 72 h, read-out: IC50 (uM) Liquid culture
Caov-3 = test: Cell growth in liquid culture (alamarBlue); conditions: Homo sapiens, Caov-3, 72 h, read-out: IC50 (uM) Liquid culture
A549 [11] = test: Cell growth in liquid culture (alamarBlue); conditions: Homo sapiens, A549, 72 h, read-out: IC50 (uM) Liquid culture
Pc3M/N [12] = test: Cell growth in liquid culture (alamarBlue); conditions: Homo sapiens, PC-3M, 72 h, read-out: IC50 (uM) Liquid culture
Pc3M/N [13] = test: Liquid growth culture with and without added glucose (alamarBlue); type: cell-based; conditions: Homo sapiens, PC-3M
From the text: (§1) The method is as follows:

Panc-1 = test: as above; type: cell-based; conditions: Homo sapiens
From the text: as §1

HCT-116 = test: as above; type: cell-based; conditions: Homo sapiens
From the text: as §1

CCD112/N = test: Cell growth in liquid culture (alamarBlue); conditions: 72 h, read-out: IC50 (uM) Liquid culture
MCF7 [14] = test: Cell growth in soft agar culture (alamarBlue); conditions: Homo sapiens, MCF7, 168 h, read-out: IC50 (uM) Soft agar
HCT116 = test: Cell growth in soft agar culture (alamarBlue); conditions: Homo sapiens, HCT-116, 168 h, read-out: IC50 (uM) Soft agar
MDA-231 [15] = test: Cell growth in liquid culture (alamarBlue); conditions: Homo sapiens, MDA-MB-231, 72 h, read-out: IC50 (uM) Liquid culture
HT29 [16] = test: Cell growth in liquid culture (alamarBlue); conditions: Homo sapiens, HT-29, 72 h, read-out: IC50 (uM) Liquid culture
A549 [17] = test: Cell growth in soft agar culture (alamarBlue); conditions: Homo sapiens, A549, 168 h, read-out: IC50 (uM) Soft agar
A2058 = test: Cell growth in liquid culture (alamarBlue); conditions: Homo sapiens, A2058, 72 h, read-out: IC50 (uM) Liquid culture

Work on `Cc1cc(/C=C/c2ccc3cc(N(C)C)ccc3[n+]2C)c(C)n1-c1ccccc1` [Example 1, Pyrvinium Phosphate] yielded an IC50 (MDA_MB-435) of 0.3 to 1 µM, an IC50 (OVCAR-8) of 0.1 to 0.3 µM and an IC50 (SW480 [1]) of 0.3 to 1 µM. For the same compound, the IC50 (SW480 [2]) was 0.3 to 1 µM, the IC50 (DU145 [3]) was over 1 µM and the IC50 (HT29 [4]) was 0.03 to 0.1 µM. For the same compound, the IC50 (NCI-H460) was 0.1 to 0.33 µM, the IC50 (DU145 [5]) was 0.3 to 1 µM and the IC50 (A2780) was 0.03 to 0.1 µM. The “Result: Tumor reduction” value [6] was “Tumor reduction (25%)”, the IC50 (SK-OV-3 [7]) was 0.1 to 0.3 µM and the IC50 (MDA-231 [8]) was under 0.03 µM. For the same compound, the IC50 (SK-OV-3 [9]) was 0.03 to 0.1 µM, the IC50 (MCF7 [10]) was 0.03 to 0.1 µM and the IC50 (HUVEC) was 0.03 to 0.1 µM. The IC50 (Caov-3) was 0.03 to 0.1 µM, the IC50 (A549 [11]) was 0.1 to 0.3 µM and the IC50 (Pc3M/N [12]) was over 1 µM. For the same compound, the IC80 (Pc3M/N [13]; (+) Glu) was 1000 nM, the IC80 (Pc3M/N [13]; (−) Glu) was 100 nM and the IC80 (Panc-1; PANC-1, Panc-1, (+) Glu) was over 1000 nM. It also gave an IC80 (Panc-1; PANC-1, Panc-1, (−) Glu) of 100 nM, an IC80 (HCT-116; HCT-116, HCT-116, (+) Glu) of 1000 nM and an IC80 (HCT-116; HCT-116, HCT-116, (−) Glu) of 100 nM. The IC50 (CCD112/N) was about 1 µM, the IC50 (MCF7 [14]) was under 0.03 µM and the IC50 (HCT116) was 0.1 to 0.3 µM. For the same compound, the IC50 (MDA-231 [15]) was 0.1 to 0.3 µM, the IC50 (HT29 [16]) was over 1 µM and the IC50 (A549 [17]) was 0.033 to 0.1 µM. The IC50 (A2058) was 0.1 to 0.3 µM.
